Measurements as given in patent US20220039395A1, “INSECT CONTROL AGENTS” (priority 2018, published 2022).
Entries after “also recorded” stand apart in the source; their conditions may differ. Numbered stars: 1 amine (or outer) side, 2 acyl side, 3 side chain; on linkers, the order of the positions; unused ones are H or OH. Square brackets hold non-standard residues; d marks the D form. Ends that are not written are not given here. Suc = O=C(CCC(=O)[*:2])[*:1]; β3hL = CC(C)C[C@H](N)CC(=O)O; 2Abf = not defined here

How the values were obtained:
[1] = test system: Myzus persicae; test: Feeding of aphids with peptides in artificial diet; life span and fecundity; assay type: in vivo; conditions: M. persicae on artificial diet containing the peptide; mean ± SE
Procedure: A standard artificial diet for M. persicae was produced as described in Van Emden (2009) and provided the basal diet to which neuropeptide analogues were added for screening purposes. Neuropeptide analogues were diluted individually in the artificial diet to a pre-determined recommended concentration as follows: 1895 (3.5×10^-5 M) and 2019 (2.0×10^-5 M). Feeding apparatus were constructed using a set-up developed by […] et al (2009). For this, a piece of Parafilm was stretched over a Plexiglas ring (h=4 cm, Ø=3 cm) and 100 μl of the artificial diet containing the desired neuropeptide analogue was pipette onto the Parafilm membrane. A second piece of Parafilm, stretched to 4 times the original thickness, was stretched over the original layer, sandwiching the artificial diet between two layers of Parafilm. A strip of Parafilm was wrapped around the circumference of the Plexiglas ring, sealing in the diet. A plastic ring (h=1.2 cm, Ø=3.4 cm) was subsequently placed over the Parafilm layer, creating a walled chamber in which to house test aphids in contact with the Parafilm layer containing the artificial diet. Finally, a small Petri dish (h=1 cm, Ø=3.6 cm), modified for ventilation with net cloth, was placed on top of each feeding apparatus to prevent aphid escape. To obtain aphids for use in experiments, reproducing anholocyclic adults were placed on individual excised leaves of Chinese cabbage at densities of 5 adults per leaf and allowed to reproduce for 24 h. The stem of each excised leaf was held within a 0.5 mL Eppendorf tube containing water via a punctured hole in the Eppendorf lid, and placed individually within a microcage (L=4 cm, Ø=9.5 cm). Following 24 h, adults were removed and resultant first instar nymphs (<1 day old and synchronised in age to within 24 h) retained. Nymphs were allowed to develop on the Chinese cabbage for 5 days. On day 5, (3rd instar) nymphs were transferred onto the artificial diet containing a neuropeptide analogue at densities of 1 per feeding chamber and monitored daily until death. Aphids were transferred to fresh artificial diet (containing neuropeptide analogue) every 5 days. Life history traits recorded include age at first reproduction, number of nymphs produced per 24 h period, and lifespan. From these parameters, lifetime fecundity and daily fecundity were calculated. Control groups were set up involving aphids reared on the host plant, an artificial diet without a neuropeptide analogue, and an artificial diet containing the native CAPA neuropeptide.

[2] = test system: Myzus persicae; test: Desiccation/starvation tolerance assay after peptide microinjection; assay type: in vivo; conditions: Myzus persicae, microinjection; for Documented effect on desiccation/starvation mortality: final concentration ×10^−5 M, relative to vehicle control; for LTime50 (h), test / Median ± IQR survival (h), test: ×10^−5 M, desiccation and starvation stress, test group
Procedure: (§1) Neuropeptides were administered to test aphids via microinjection to allow for rapid mass screening of neuropeptide analogue efficacy. For this, native neuropeptides were diluted in double distilled water (DDH2O) to a concentration of 1×10^−5 M. Neuropeptide analogues were diluted in DDH2O to the following concentrations: kinin analogues 1728 (2.5×10^−5 M), 2139 (3.5×10^−5 M), 2139-Ac (3.5×10^−5 M); CAP2b analogues 1895 (3.5×10^−5 M), 1896 (3.5×10^−5 M), 1902 (3.5×10^−5 M), 2089 (3.9×10^−5 M), 2123 (1.0×10^−5 M), 2125 (1.0×10^−5 M), 2129 (2.0×10^−5 M). Once at the desired concentration, neuropeptide solutions were administered to test aphids at an injection volume of 9 nl based on total haemolymph volume, to produce an approximate 1:20 dilution of injection volume to haemolymph. Injections were performed using a pulled glass needle and a Nanoject II Auto-Nanoliter Injector (Drummond Scientific Company, Broomall, Pa.). A vehicle control was set up for each treatment/day of experiments to account for variation in needle pulling. For this, control aphids were injected with 9 nl of DDH2O and subsequently exposed to the same experiments as aphids receiving the neuropeptide treatment. Neuropeptide treated and vehicle control aphids were subsequently used in the stress bioassays detailed below.
(§2) Anholocyclic adults of mixed age of either M. persicae or M. rosae were selected from the stock cultures and treated with a native neuropeptide or neuropeptide analogue via microinjection using the method detailed above. Treated and vehicle control aphids were allowed to recover on excised leaves of the host plant for 1 h before being placed in an empty ventilated microcage (L=4 cm, 0=9.5 cm) at densities of 10 per cage. In total, 30-40 aphids were treated for each neuropeptide treatment group and a further 30-40 for the associated vehicle control group. From the point of placement in the microcage (taken as 0 h), aphid survival was checked every hour during daylight hours and approximately every 4 h during night-time hours until the final aphid died. Survival data were subsequently analysed using a Log-rank (Mantel-Cox) text in GraphPad Prism version 7.0. LTime50 (the time taken to kill 50% of the test population) values were calculated via Probit Analysis in Minitab 17 (Minitab Inc., State College, Pa.).

[3] = test system: Macrosiphum rosae; test: as above; assay type: in vivo; conditions: Macrosiphum rosae, microinjection; for Documented effect on desiccation/starvation mortality: final concentration ×10^−5 M, relative to vehicle control; for LTime50 (h), test / Median IQR survival (h), test: ×10^−5 M, desiccation and starvation stress, test group
Procedure: as §1, §2

[4] = test system: Aphids; test: Feeding with peptides in artificial diet, mortality without other stress; assay type: in vivo, Myzus persicae; conditions: for effect on mortality in the absence of additional stressors: no additional stress conditions
Procedure: A standard artificial diet for M. persicae was produced as described in Van Emden (2009) and provided the basal diet to which neuropeptide analogues were added for screening purposes. Neuropeptide analogues were diluted individually in the artificial diet to a pre-determined recommended concentration as follows: 1895 (3.5×10^−5 M) and 2019 (2.0×10^−5 M).
Feeding apparatus were constructed using a set-up developed by Sadeghi et al (2009). For this, a piece of Parafilm was stretched over a Plexiglas ring (h=4 cm, Ø=3 cm) and 100 μl of the artificial diet containing the desired neuropeptide analogue was pipette onto the Parafilm membrane. A second piece of Parafilm, stretched to 4 times the original thickness, was stretched over the original layer, sandwiching the artificial diet between two layers of Parafilm. A strip of Parafilm was wrapped around the circumference of the Plexiglas ring, sealing in the diet. A plastic ring (h=1.2 cm, Ø=3.4 cm) was subsequently placed over the Parafilm layer, creating a walled chamber in which to house test aphids in contact with the Parafilm layer containing the artificial diet. Finally, a small Petri dish (h=1 cm, Ø=3.6 cm), modified for ventilation with net cloth, was placed on top of each feeding apparatus to prevent aphid escape.
To obtain aphids for use in experiments, reproducing anholocyclic adults were placed on individual excised leaves of Chinese cabbage at densities of 5 adults per leaf and allowed to reproduce for 24 h. The stem of each excised leaf was held within a 0.5 mL Eppendorf tube containing water via a punctured hole in the Eppendorf lid, and placed individually within a microcage (L=4 cm, Ø=9.5 cm). Following 24 h, adults were removed and resultant first instar nymphs (<1 day old and synchronised in age to within 24 h) retained. Nymphs were allowed to develop on the Chinese cabbage for 5 days. On day 5, (3rd instar) nymphs were transferred onto the artificial diet containing a neuropeptide analogue at densities of 1 per feeding chamber and monitored daily until death. Aphids were transferred to fresh artificial diet (containing neuropeptide analogue) every 5 days. Life history traits recorded include age at first reproduction, number of nymphs produced per 24 h period, and lifespan. From these parameters, lifetime fecundity and daily fecundity were calculated. Control groups were set up involving aphids reared on the host plant, an artificial diet without a neuropeptide analogue, and an artificial diet containing the native CAPA neuropeptide.
Aphids were reared on artificial diet, alone or supplemented with peptide 2129, 2315, 2316 or 2320. A control group (no test peptide) was reared on a host plant. No other stress conditions were applied.
For peptides 2315, 2316 and 2320, mortality was assessed at 48, 72, 96, 120 and 144 hours. A group of 9 or 10 insects was used for each time point, and all experiments were performed at least 4 times.

Substance	Documented effect on desiccation/starvation mortality [2]	LTime50 (h), test [2]	Median ± IQR survival (h), test [2]	Documented effect on desiccation/starvation mortality [3]	LTime50 (h), test [3]	Median IQR survival (h), test [3]	also measured
Native Kinin: native kinin neuropeptide based on the kinin structure of Drosophila melanogaster, synthesized by Cambridge Peptides (NSVVLGKKQRFHSWG; ends and bridges not checked) [reference compound]							Age at 1st reproduction [1]: 11.1 ± 0.5 days; Ave. daily fecundity [1]: 1.6 ± 0.2 nymphs; Days as reproducing adult [1]: 5.9 ± 1.0; Life span [1]: 18.8 ± 1.3 days; Lifetime fecundity [1]: 9.7 ± 1.9 nymphs
FF[Aib]WG-NH2 [compound 2139, reference compound]	non-significant survival curves; also recorded: No effect	18.3 | 22.4 h	22.0 ± 16.5 | 25.0 ± 21.0 h	non-significant survival curves; also recorded: No effect	31.7 | 29.8 h	29.5 ± 22.0 | 27.0 ± 26.0 h	
2Abf-Suc-FTPRV-NH2 ({2Abf-Suc}-FTPRV-NH2; reading uncertain; also: printed as 2Abf-Suc-FTPRV-NH2) [compound 2089]	No effect	10.9 | 13.0 h	11.0 ± 12.0 | 16.5 ± 10.3 h	No effect	23.2 | 16.4 h	23.0 ± 17.0 | 17.0 ± 21.3 h	
[Aib]FF[Aib]WG-NH2 [compound 1728, reference compound]	No effect	18.3 | 25.0 h	22.0 ± 16.5 | 26.0 ± 23.5 h	No effect	31.7 | 31.6 h	29.5 ± 22.0 | 24.0 ± 28.5 h	
GANMGLYAFPRVamide (GANMGLYAFPRV-NH2) [Native Capa, reference compound]							Age at 1st reproduction [1]: 11.2 ± 0.2 days; Ave. daily fecundity [1]: 1.6 ± 0.1 nymphs; Days as reproducing adult [1]: 7.6 ± 0.6; Life span [1]: 21.3 ± 0.7 days; Lifetime fecundity [1]: 12.0 ± 1.2 nymphs
2Abf-Suc-FTPRI-NH2 ({2Abf-Suc}-FTPRI-NH2; reading uncertain; also: printed as 2Abf-Suc-FTPRI-NH2) [compound 1896]	No effect	22.2 | 24.8 h	24.0 ± 0 9.0 | 25.0 ± 10.5 h	No effect	28.9 | 24.7 h	27.0 ± 17.3 | 23.0 ± 18.5 h	
ASGL[βhL]AFPRV-NH2 (ASGL[β3hL]AFPRV-NH2; N-terminus assumed; SMILES CC(C)C[C@@H](CC(=O)N[C@@H](C)C(=O)N[C@@H](Cc1ccccc1)C(=O)N1CCC[C@H]1C(=O)N[C@@H](CCCNC(=N)N)C(=O)N[C@H](C(N)=O)C(C)C)NC(=O)[C@H](CC(C)C)NC(=O)CNC(=O)[C@H](CO)NC(=O)[C@H](C)N) [compound 2316]							Dead (48 h) ([4]; artificial diet supplemented with peptide, 48 h): 86.0%; Dead (72 h) ([4]; artificial diet supplemented with peptide, 72 h): 88.0%; Dead (96 h) ([4]; artificial diet supplemented with peptide, 96 h): 90.0%; Dead (120 h) ([4]; artificial diet supplemented with peptide, 120 h): 92.0%; Dead (144 h) ([4]; artificial diet supplemented with peptide, 144 h): 92.0%; effect on mortality in the absence of additional stressors [4]: increase mortality in the absence of additional stressors; effect on mortality in the absence of additional stressors ([4]; listed as 2136): increase mortality in the absence of additional stress conditions
2Abf-Suc-FKPRL-NH2 ({2Abf-Suc}-FKPRL-NH2; reading uncertain; also: printed as 2Abf-Suc-FKPRL-NH2) [compound 1902]	No effect	22.2 | 21.8 h	24.0 ± 0 9.0 | 23.5 ± 7.0 h	No effect	28.9 | 26.4 h	27.0 ± 17.3 | 25.0 ± 10.0 h	
2Abf-Suc-FT[Hyp]RV-NH2 [compound 2123]	No effect	24.3 | 21.1 h	25.0 ± 13.5 | 21.0 ± 13.5 h	No effect	21.6 | 19.1 h	24.0 ± 11.0 | 16.0 ± 18.0 h	
